{"source": "the supplement of paper PMC10307832", "experiment_in_all_cases": "relative viability (nuclei count vs DMSO), 5 days (fraction); higher = more cells survive", "key": {"[1]": {"compound": "COc1cccc2cc(-c3nc([C@H]4CC[C@H](C(=O)O)CC4)n4ncnc(N)c34)[nH]c12 [OSI-027] + CS(=O)(=O)CCNCc1ccc(-c2ccc3ncnc(Nc4ccc(OCc5cccc(F)c5)c(Cl)c4)c3c2)o1 [Lapatinib] (partner 2 µM)", "in_short": "(§1)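 Lung cancer cell lines were seeded in 1536-well plates and dosed by pin tool the next day, with either a single drug or a fixed anchor-drug dose combined with five library-drug doses (not always all listed) spaced in √10 steps. Five days later, one step fixed the cells and stained their nuclei (final 0.05% Triton X-100, 1% formaldehyde, 1 ug/ml Hoechst), and nuclei were counted on 4× images. Relative viability is the nuclei count in treated wells divided by the count in vehicle wells, and each value is the median of duplicate plates.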"}, "[2]": {"compound": "Cc1nc(NC(=O)N2CCC[C@H]2C(N)=O)sc1-c1ccnc(C(C)(C)C(F)(F)F)c1 [Alpelisib] + CS(=O)(=O)CCNCc1ccc(-c2ccc3ncnc(Nc4ccc(OCc5cccc(F)c5)c(Cl)c4)c3c2)o1 [Lapatinib] (partner 2 µM)", "in_short": "as §1"}, "[3]": {"compound": "CCCS(=O)(=O)Nc1ccc(F)c(C(=O)c2c[nH]c3ncc(-c4ccc(Cl)cc4)cc23)c1F [Vemurafenib] + N=C(N)NC(=N)NCCc1ccccc1 [Phenformin] (partner 250 µM)", "in_short": "as §1"}, "[4]": {"compound": "COc1cccc2cc(-c3nc([C@H]4CC[C@H](C(=O)O)CC4)n4ncnc(N)c34)[nH]c12 [OSI-027] + Nc1nc2[nH]cc(CCc3ccc(C(=O)N[C@@H](CCC(=O)O)C(=O)O)cc3)c2c(=O)[nH]1 [Pemetrexed] (partner 0.2 µM)", "in_short": "as §1"}}, "data": [{"cell line": "UMC-11", "values": [{"measurement": "relative viability", "setting": "[1]; first compound 0.01 µM", "result": 0.934}, {"measurement": "relative viability", "setting": "[1]; first compound 0.03162 µM", "result": 0.939}, {"measurement": "relative viability", "setting": "[1]; first compound 0.1 µM", "result": 0.805}, {"measurement": "relative viability", "setting": "[1]; first compound 0.3162 µM", "result": 0.693}, {"measurement": "relative viability", "setting": "[1]; first compound 1 µM", "result": 0.506}, {"measurement": "relative viability", "setting": "[2]; first compound 0.04 µM", "result": 1.03}, {"measurement": "relative viability", "setting": "[2]; first compound 0.1265 µM", "result": 0.948}, {"measurement": "relative viability", "setting": "[2]; first compound 0.4 µM", "result": 1.01}, {"measurement": "relative viability", "setting": "[2]; first compound 1.265 µM", "result": 1.02}, {"measurement": "relative viability", "setting": "[2]; first compound 4 µM", "result": 0.875}, {"measurement": "relative viability", "setting": "[3]; first compound 0.03162 µM", "result": 0.29}, {"measurement": "relative viability", "setting": "[3]; first compound 0.1 µM", "result": 0.315}, {"measurement": "relative viability", "setting": "[3]; first compound 0.3162 µM", "result": 0.227}, {"measurement": "relative viability", "setting": "[3]; first compound 1 µM", "result": 0.315}, {"measurement": "relative viability", "setting": "[4]; first compound 0.01 µM", "result": 0.994}, {"measurement": "relative viability", "setting": "[4]; first compound 0.03162 µM", "result": 0.77}, {"measurement": "relative viability", "setting": "[4]; first compound 0.1 µM", "result": 0.658}, {"measurement": "relative viability", "setting": "[4]; first compound 0.3162 µM", "result": 0.585}, {"measurement": "relative viability", "setting": "[4]; first compound 1 µM", "result": 0.444}]}]}
